# Legend:
# [1] = target: T1, P2X purinoceptor 4 (Rattus norvegicus, UniProt P51577); test: The compound was evaluated for antagonist activity against recombinant rat P2X purinoceptor 4 (P2X4) at 10 uM; format: functional
# T1 sequence (P51577 whole entry): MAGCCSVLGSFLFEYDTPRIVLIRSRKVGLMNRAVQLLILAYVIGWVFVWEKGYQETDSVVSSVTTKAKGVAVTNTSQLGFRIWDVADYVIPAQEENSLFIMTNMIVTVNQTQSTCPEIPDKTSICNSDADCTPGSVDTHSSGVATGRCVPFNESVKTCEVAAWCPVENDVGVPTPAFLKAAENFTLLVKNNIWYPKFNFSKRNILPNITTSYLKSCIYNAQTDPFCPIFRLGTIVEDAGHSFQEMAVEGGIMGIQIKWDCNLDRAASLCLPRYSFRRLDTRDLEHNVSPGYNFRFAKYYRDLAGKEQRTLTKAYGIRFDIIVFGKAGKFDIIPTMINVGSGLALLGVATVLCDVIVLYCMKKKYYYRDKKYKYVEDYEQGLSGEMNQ
# [2] = target: T2, P2X purinoceptor 1 (Rattus norvegicus, UniProt P47824); test: The compound was evaluated for antagonist activity against recombinant rat P2X purinoceptor 1 (P2X1); format: functional
# T2 sequence (P47824 whole entry): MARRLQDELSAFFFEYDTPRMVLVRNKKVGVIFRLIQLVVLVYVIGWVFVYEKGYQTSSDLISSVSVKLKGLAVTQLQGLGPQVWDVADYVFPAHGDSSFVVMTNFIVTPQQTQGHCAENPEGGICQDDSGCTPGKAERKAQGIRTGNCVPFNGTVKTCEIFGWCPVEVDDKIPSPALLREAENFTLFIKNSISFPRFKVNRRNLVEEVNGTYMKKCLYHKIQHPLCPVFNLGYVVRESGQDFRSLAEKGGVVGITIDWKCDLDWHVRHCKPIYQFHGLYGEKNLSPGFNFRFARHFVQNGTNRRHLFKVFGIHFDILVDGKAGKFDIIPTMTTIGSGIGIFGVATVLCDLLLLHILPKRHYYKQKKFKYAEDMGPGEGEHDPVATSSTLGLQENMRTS
# [3] = target: T2, P2X purinoceptor 1; test: The compound was evaluated for antagonist activity against P2X purinoceptor 1 (P2X1) like receptor from rat vas deferens; format: functional
# [4] = target: P2Y purinoceptor 1 (Cavia porcellus); test: The compound was evaluated for antagonistic activity at P2Y purinoceptor 1 (P2Y1) from guinea pig taenia coli
# [5] = target: T2, P2X purinoceptor 1; test: The compound was evaluated for antagonist activity against P2X purinoceptor 1 (P2X1) from rat vas deferens; format: functional
# [6] = target: T2, P2X purinoceptor 1; test: Dissociation constant of the compound at P2X purinoceptor 1 (P2X1) from rat vas deferens was reported
# [7] = target: T1, P2X purinoceptor 4; test: Antagonist activity against recombinant rat P2X purinoceptor 4 (P2X4) at 3 uM, expressed in Xenopus oocytes; format: functional, cell-based, Oocyte
# [8] = target: T3, P2X purinoceptor 5 (Rattus norvegicus, UniProt P51578); test: Antagonist activity against recombinant rat P2X purinoceptor 5 (P2X5); format: functional
# T3 sequence (P51578 whole entry): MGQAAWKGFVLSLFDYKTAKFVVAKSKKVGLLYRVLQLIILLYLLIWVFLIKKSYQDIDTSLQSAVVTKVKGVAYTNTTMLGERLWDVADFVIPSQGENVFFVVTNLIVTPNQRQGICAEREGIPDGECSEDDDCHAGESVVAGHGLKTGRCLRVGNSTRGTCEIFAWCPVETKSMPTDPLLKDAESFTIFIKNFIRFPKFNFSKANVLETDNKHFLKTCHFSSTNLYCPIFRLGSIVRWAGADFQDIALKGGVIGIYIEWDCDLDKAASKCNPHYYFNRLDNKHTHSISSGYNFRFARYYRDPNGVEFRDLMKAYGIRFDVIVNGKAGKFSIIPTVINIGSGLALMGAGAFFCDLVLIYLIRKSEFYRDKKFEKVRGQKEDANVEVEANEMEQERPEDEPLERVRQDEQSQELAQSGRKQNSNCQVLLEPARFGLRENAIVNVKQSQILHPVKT
# [9] = target: P2X purinoceptor 6 (Rattus norvegicus, UniProt P51579); test: Antagonist activity against recombinant rat P2X purinoceptor 6 (P2X6 ); format: functional
# Sequence of P2X purinoceptor 6 (P51579 whole entry): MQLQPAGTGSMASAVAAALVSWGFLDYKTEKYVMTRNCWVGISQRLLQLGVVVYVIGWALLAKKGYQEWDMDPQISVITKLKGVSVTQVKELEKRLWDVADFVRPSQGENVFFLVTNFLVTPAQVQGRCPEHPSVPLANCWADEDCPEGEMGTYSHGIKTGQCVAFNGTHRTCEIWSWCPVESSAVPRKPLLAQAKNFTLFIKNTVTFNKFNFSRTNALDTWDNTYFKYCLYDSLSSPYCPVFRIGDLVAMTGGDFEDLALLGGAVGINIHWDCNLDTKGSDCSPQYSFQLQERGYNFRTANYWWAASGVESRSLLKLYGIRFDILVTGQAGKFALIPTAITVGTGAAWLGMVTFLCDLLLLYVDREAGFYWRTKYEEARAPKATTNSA
# [10] = target: T4, P2X purinoceptor 2 (Rattus norvegicus, UniProt P49653); test: The compound was evaluated for antagonist activity against recombinant rat receptor P2X purinoceptor 2 (P2X2) at 30 uM, expressed in Xenopus oocytes; format: functional, cell-based, Oocyte
# T4 sequence (P49653 whole entry): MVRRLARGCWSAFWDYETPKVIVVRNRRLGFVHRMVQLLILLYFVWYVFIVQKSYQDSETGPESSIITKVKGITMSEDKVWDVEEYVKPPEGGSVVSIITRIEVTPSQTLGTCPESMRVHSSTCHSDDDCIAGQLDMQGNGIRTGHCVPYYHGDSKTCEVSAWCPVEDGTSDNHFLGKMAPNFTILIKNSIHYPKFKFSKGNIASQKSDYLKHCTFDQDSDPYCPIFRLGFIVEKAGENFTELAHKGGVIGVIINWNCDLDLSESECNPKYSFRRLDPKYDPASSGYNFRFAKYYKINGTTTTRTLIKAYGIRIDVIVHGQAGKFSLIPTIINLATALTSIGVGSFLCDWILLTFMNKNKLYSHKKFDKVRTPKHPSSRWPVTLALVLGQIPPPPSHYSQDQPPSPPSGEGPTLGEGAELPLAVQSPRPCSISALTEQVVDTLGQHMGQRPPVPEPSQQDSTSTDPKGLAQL
# [11] = target: P2Y purinoceptor 2 (Homo sapiens, UniProt P41231); test: Evaluated for agonist activity against phospholipase C coupled recombinant human P2Y purinoceptor 2 (P2Y2); format: functional
# Sequence of P2Y purinoceptor 2 (P41231 whole entry): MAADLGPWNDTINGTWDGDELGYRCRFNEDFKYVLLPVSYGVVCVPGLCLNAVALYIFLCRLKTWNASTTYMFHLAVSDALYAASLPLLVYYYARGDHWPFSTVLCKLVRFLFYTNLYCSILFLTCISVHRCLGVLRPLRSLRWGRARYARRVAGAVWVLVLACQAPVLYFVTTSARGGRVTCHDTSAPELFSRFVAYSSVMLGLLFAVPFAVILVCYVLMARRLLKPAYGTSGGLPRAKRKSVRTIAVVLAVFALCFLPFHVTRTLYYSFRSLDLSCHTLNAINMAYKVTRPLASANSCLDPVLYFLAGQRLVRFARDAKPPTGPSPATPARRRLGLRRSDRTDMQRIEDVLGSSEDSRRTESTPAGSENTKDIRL
# [12] = target: T5, P2Y purinoceptor 11 (Homo sapiens, UniProt Q96G91); test: The compound was evaluated for antagonist activity against phospholipase C coupled human P2Y purinoceptor 11 (P2Y11); format: functional
# T5 sequence (Q96G91 whole entry): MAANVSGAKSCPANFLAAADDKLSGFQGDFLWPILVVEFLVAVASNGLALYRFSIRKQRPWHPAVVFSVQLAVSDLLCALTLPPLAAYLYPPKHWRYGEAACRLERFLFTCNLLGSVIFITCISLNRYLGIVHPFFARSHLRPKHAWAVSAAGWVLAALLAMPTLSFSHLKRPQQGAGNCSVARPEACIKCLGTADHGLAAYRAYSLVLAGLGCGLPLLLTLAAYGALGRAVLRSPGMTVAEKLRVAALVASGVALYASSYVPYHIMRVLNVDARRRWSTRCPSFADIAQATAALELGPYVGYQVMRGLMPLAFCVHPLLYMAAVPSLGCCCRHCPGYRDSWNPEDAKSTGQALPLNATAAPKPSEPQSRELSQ
# [13] = target: P2Y purinoceptor 12 (Rattus norvegicus, UniProt Q9EPX4); test: Antagonist activity against phospholipase C coupled rat P2Y purinoceptor 12 (P2Y12); format: functional
# Sequence of P2Y purinoceptor 12 (Rattus norvegicus, UniProt Q9EPX4) (Q9EPX4 whole entry): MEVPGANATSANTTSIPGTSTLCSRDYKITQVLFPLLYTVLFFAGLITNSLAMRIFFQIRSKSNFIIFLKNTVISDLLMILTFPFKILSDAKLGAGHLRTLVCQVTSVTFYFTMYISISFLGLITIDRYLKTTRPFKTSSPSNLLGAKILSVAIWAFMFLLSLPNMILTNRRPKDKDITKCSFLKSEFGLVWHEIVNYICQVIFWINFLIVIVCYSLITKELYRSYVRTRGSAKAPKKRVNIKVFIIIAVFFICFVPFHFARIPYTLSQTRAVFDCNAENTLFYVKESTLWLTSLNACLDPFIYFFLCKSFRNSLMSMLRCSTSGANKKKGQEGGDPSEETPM
# [14] = target: P2Y purinoceptor 4 (Homo sapiens, UniProt P51582); test: The compound was evaluated for antagonist activity against phospholipase C coupled recombinant human P2Y purinoceptor 4 (P2Y4); format: functional
# Sequence of P2Y purinoceptor 4 (P51582 whole entry): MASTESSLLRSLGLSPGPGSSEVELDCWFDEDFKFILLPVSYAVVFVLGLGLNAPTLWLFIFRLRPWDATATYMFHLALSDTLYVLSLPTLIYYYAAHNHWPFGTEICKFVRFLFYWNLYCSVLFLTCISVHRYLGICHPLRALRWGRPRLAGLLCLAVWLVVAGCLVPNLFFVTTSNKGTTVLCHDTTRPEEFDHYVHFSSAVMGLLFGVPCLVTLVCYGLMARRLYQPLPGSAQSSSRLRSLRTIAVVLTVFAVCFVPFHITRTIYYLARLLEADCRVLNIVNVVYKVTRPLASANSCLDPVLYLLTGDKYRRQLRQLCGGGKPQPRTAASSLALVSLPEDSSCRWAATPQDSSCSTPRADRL
# [15] = target: P2Y purinoceptor 6 (Homo sapiens, UniProt Q15077); test: The compound was evaluated for antagonist activity against phospholipase C coupled recombinant human P2Y purinoceptor 6 (P2Y6); format: functional; details: concentration not given here
# Sequence of P2Y purinoceptor 6 (Q15077 whole entry): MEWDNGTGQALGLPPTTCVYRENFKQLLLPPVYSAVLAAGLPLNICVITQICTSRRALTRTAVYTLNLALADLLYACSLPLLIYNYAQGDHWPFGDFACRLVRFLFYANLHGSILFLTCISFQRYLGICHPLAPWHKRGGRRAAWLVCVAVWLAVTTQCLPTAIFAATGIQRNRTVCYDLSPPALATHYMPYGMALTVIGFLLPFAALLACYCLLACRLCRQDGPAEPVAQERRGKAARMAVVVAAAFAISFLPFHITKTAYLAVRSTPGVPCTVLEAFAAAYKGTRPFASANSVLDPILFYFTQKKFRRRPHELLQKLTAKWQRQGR
# [16] = target: P2Y purinoceptor 1 (Meleagris gallopavo, UniProt P49652); test: Evaluated for antagonist activity against phospholipase C coupled P2Y purinoceptor 1 (P2Y1) of turkey erythrocytes; format: functional
# Sequence of P2Y purinoceptor 1 (P49652 whole entry): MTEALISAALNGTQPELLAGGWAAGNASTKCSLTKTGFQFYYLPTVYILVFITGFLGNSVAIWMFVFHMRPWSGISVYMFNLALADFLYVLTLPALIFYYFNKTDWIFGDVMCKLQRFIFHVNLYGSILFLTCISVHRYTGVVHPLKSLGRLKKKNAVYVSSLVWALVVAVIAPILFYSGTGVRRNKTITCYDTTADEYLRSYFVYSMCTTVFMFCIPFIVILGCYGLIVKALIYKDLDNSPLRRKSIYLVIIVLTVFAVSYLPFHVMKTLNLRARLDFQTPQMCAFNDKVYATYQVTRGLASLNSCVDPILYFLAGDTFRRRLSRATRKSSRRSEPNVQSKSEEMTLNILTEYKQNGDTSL
# [17] = target: T2, P2X purinoceptor 1; test: The compound was evaluated for antagonist activity against recombinant rat P2X purinoceptor 1 (P2X1) at 1 uM, expressed in Xenopus oocytes; format: functional, cell-based, Oocyte
# [18] = target: P2X purinoceptor 7 (Rattus norvegicus, UniProt Q64663); test: The compound was evaluated for antagonist activity against P2X purinoceptor 7 (P2X7) in rat parotid acinar cells; format: functional, cell-based
# Sequence of P2X purinoceptor 7 (Q64663 whole entry): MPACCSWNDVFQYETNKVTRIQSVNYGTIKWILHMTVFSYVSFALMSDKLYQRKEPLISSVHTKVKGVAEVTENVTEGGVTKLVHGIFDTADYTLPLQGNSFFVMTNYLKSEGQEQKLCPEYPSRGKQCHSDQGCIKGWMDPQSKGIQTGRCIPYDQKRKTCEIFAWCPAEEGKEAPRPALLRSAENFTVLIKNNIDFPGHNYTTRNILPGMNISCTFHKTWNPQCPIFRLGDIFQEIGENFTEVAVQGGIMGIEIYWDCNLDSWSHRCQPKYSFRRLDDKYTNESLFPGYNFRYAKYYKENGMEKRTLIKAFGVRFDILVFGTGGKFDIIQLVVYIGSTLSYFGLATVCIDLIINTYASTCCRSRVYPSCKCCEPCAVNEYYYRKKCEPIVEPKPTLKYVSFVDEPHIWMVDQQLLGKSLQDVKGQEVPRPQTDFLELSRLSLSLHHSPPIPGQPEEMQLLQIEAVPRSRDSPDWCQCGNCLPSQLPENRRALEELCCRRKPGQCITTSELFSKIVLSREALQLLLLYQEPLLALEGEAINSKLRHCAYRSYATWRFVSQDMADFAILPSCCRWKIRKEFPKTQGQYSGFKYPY
# [19] = target: T5, P2Y purinoceptor 11; test: Agonist activity against phospholipase C coupled human P2Y purinoceptor 11 (P2Y11); format: functional
# [20] = target: P2Y purinoceptor 12 (Homo sapiens, UniProt Q9H244); test: The compound was evaluated for antagonist activity against phospholipase C coupled human P2Y purinoceptor 12 (P2Y12); format: functional
# Sequence of P2Y purinoceptor 12 (Homo sapiens, UniProt Q9H244) (Q9H244 whole entry): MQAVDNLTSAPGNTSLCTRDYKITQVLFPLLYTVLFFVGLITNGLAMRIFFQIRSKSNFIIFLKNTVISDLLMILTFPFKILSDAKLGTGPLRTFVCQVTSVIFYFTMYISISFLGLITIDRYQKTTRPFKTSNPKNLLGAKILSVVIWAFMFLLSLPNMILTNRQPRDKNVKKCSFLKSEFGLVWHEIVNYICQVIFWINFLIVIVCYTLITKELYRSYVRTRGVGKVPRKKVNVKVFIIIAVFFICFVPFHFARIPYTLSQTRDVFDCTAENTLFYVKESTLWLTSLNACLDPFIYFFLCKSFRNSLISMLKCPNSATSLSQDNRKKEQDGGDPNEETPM
# [21] = target: P2Y purinoceptor 1 (Meleagris gallopavo); test: The compound was evaluated for antagonist activity against phospholipase C coupled P2Y purinoceptor 1 (P2Y1) of turkey erythrocytes
# [22] = target: T6, P2X purinoceptor 4 (Homo sapiens, UniProt Q99571); test: The compound was evaluated for antagonist activity against recombinant human P2X purinoceptor 4 (P2X4); format: functional
# T6 sequence (Q99571 whole entry): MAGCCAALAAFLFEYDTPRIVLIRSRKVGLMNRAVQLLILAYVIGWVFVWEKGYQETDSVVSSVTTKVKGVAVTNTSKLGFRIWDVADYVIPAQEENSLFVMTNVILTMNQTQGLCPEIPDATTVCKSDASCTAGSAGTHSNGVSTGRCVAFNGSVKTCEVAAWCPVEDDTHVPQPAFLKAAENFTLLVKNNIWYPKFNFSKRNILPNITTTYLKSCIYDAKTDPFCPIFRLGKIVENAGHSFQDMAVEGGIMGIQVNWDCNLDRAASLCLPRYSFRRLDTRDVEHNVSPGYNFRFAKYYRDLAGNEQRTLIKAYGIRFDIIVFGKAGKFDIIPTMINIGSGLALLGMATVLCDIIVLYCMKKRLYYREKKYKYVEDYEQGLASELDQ
# [23] = target: T7, P2X purinoceptor 3 (Homo sapiens, UniProt P56373); test: The compound was evaluated for antagonist activity against recombinant human P2X purinoceptor 3 (P2X3 ); format: functional
# T7 sequence (P56373 whole entry): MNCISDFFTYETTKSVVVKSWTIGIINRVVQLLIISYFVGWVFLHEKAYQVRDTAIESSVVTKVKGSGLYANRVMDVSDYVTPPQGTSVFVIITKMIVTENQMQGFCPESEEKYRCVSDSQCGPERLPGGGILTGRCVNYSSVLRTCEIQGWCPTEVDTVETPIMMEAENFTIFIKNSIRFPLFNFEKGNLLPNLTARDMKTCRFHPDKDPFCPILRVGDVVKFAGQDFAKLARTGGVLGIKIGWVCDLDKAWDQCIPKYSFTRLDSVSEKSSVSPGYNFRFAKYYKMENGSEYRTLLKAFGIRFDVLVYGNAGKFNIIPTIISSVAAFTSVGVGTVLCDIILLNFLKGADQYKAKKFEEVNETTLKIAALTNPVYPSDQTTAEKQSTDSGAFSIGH
# [24] = target: T8, P2X purinoceptor 1 (Homo sapiens, UniProt P51575); test: The compound was evaluated for antagonist activity against recombinant human P2X purinoceptor 1 (P2X1 ); format: functional
# T8 sequence (P51575 whole entry): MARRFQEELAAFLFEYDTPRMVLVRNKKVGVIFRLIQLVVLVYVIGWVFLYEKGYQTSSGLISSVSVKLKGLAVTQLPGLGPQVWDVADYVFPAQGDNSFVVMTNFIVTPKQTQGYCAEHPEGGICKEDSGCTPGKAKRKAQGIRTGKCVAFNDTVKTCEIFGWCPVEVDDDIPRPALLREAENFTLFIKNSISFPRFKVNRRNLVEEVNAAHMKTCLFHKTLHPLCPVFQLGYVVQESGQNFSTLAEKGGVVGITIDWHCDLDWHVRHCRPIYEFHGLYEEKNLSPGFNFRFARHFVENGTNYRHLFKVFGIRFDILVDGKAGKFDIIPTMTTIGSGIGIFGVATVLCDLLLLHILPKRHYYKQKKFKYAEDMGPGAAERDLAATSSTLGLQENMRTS
# [25] = target: T4, P2X purinoceptor 2; test: The compound was evaluated for antagonist activity against recombinant rat P2X purinoceptor 2 (P2X2) at 10 uM; format: functional
# [26] = target: T1, P2X purinoceptor 4; test: The compound was evaluated for antagonist activity against recombinant rat P2X purinoceptor 4 (P2X4) 3 uM; format: functional
# [27] = target: T4, P2X purinoceptor 2; test: The compound was evaluated for antagonist activity against recombinant rat P2X purinoceptor 2 (P2X2) at 30 uM; format: functional
# [28] = target: P2X purinoceptor 3 (Rattus norvegicus, UniProt P49654); test: The compound was evaluated for antagonist activity against recombinant rat P2X purinoceptor 3 (P2X3) at 3 uM, expressed in Xenopus oocytes; format: functional, cell-based, Oocyte
# Sequence of P2X purinoceptor 3 (Rattus norvegicus, UniProt P49654) (P49654 whole entry): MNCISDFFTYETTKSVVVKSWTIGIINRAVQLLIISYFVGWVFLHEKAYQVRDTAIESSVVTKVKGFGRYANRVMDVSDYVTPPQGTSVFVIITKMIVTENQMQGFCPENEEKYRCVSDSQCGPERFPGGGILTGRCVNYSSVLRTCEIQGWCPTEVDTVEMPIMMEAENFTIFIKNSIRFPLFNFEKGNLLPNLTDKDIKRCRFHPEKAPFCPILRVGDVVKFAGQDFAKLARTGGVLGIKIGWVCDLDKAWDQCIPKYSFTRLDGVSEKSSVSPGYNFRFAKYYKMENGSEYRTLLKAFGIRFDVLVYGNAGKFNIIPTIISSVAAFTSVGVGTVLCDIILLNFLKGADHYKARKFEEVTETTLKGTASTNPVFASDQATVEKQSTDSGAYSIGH
structure (smiles),measurement,setting,value
Cc1ncc(COP(=O)(O)O)c(C=O)c1O [PYRIDOXAL PHOSPHATE ANHYDROUS],EC50,[1],219 µM
same,EC50,[2],3 µM
Nc1c(S(=O)(=O)O)cc(Nc2ccc(Nc3nc(Cl)nc(Cl)n3)cc2S(=O)(=O)O)c2c1C(=O)c1ccccc1C2=O,IC50,[3],1.6 µM
same,IC50,[4],< 1 µM
Nc1c(S(=O)(=O)O)cc(Nc2ccc(Nc3nc(Cl)nc(Nc4ccccc4S(=O)(=O)O)n3)c(S(=O)(=O)O)c2)c2c1C(=O)c1ccccc1C2=O [CIBACRON BLUE 3GA],IC50,[5],9.6 µM
same,Kd,[6],1.6 µM
Cc1ccc(C(=O)Nc2ccc(S(=O)(=O)O)c3cc(S(=O)(=O)O)cc(S(=O)(=O)O)c23)cc1NC(=O)c1cccc(NC(=O)Nc2cccc(C(=O)Nc3cc(C(=O)Nc4ccc(S(=O)(=O)O)c5cc(S(=O)(=O)O)cc(S(=O)(=O)O)c45)ccc3C)c2)c1 [SURAMIN],EC50,[7],> 100 µM
same,EC50,[8],4 µM
same,EC50,[9],> 100 µM
same,EC50,[10],10.4 µM
same,EC50,[11],48 µM
same,EC50,[12],16 µM
same,EC50,[13],4 µM
same,EC50,[14],> 100 µM
same,inhibition,[15],27%
same,EC50,[16],> 10 µM
same,EC50,[17],1 µM
O=S(=O)(O)c1cc(N=C=S)ccc1/C=C/c1ccc(N=C=S)cc1S(=O)(=O)O,IC50,[18],35 µM
CCCSc1nc(N)c2ncn([C@@H]3O[C@H](COP(=O)(O)OP(=O)(O)C(Cl)(Cl)P(=O)(O)O)[C@@H](O)[C@H]3O)c2n1,EC50,[19],1.5 µM
same,EC50,[20],0.0013 µM
CNc1nc(Cl)nc2c1ncn2CCC(COP(=O)(O)O)COP(=O)(O)O,EC50,[21],0.84 µM
O=C(Nc1cccc(C(=O)Nc2ccc(S(=O)(=O)O)c3cc(S(=O)(=O)O)cc(S(=O)(=O)O)c23)c1)Nc1cccc(C(=O)Nc2ccc(S(=O)(=O)O)c3cc(S(=O)(=O)O)cc(S(=O)(=O)O)c23)c1,IC50,[22],> 100 µM
same,IC50,[23],28.5 µM
same,IC50,[24],0.21 µM
same,IC50,[25],> 50 µM
Cc1ncc2c(c1O)COP(=O)(O)OC2,IC50,[26],> 100 µM
same,EC50,[2],10.2 µM
same,EC50,[27],100 µM
Cc1nc(/N=N/c2cc(CP(=O)(O)O)cc(CP(=O)(O)O)c2)c(COP(=O)(O)O)c(C=O)c1O,EC50,[28],0.022 µM
same,EC50,[17],0.005 µM

# Reference: ChEMBL document CHEMBL1135773, “Purine and pyrimidine (P2) receptors as drug targets” (J Med Chem, 2002)
